pIC50: −log10 of the molar value. Converted amounts (≈) assume the structure as drawn.
Legend:
[1] = Inhibition of human Tryptase
Pseudomonas aeruginosa = assay: Antimicrobial activity against Pseudomonas aeruginosa ATCC 10145; format: functional
[2] = Inhibition of human cytomegalovirus protease; parameters: species or system Human betaherpesvirus 5
Hamster [3] = assay: Antidyslipidemic activity in cholesterol-fed hamster model assessed as reduction in liver cholesteryl esters; format: functional; details: Cricetinae
Canis familiaris = species on record: Canis familiaris; assay: Antidyslipidemic activity in cholesterol-fed Dog assessed as reduction in plasma cholesterol level; format: functional; details: Canis lupus familiaris
Rhesus monkey = assay: Antidyslipidemic activity in cholesterol-fed rhesus monkey assessed as reduction in plasma cholesterol; format: functional; details: Macaca mulatta
[4] = Chemical stability of the compound in human plasma assessed as half life; format: ADME, cell-free
Chymase = target: T1, Chymase (Homo sapiens, UniProt P23946); assay: Inhibition of human Chymase
T1 sequence (P23946 whole entry): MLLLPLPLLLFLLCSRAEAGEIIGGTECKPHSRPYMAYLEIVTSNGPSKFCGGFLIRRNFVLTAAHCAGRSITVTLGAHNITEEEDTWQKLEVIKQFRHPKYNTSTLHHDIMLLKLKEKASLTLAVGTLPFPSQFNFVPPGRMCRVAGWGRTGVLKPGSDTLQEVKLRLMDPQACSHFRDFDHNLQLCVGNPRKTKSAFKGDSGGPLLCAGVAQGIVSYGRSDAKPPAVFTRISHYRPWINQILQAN

[5] = Inhibition of bovine brain tubulin polymerization; parameters: species or system Bos taurus
[6] = target: 72 kDa type IV collagenase (Homo sapiens, UniProt P08253); assay: Inhibition of MMP2
72 kDa type IV collagenase, sequence (P08253 whole entry): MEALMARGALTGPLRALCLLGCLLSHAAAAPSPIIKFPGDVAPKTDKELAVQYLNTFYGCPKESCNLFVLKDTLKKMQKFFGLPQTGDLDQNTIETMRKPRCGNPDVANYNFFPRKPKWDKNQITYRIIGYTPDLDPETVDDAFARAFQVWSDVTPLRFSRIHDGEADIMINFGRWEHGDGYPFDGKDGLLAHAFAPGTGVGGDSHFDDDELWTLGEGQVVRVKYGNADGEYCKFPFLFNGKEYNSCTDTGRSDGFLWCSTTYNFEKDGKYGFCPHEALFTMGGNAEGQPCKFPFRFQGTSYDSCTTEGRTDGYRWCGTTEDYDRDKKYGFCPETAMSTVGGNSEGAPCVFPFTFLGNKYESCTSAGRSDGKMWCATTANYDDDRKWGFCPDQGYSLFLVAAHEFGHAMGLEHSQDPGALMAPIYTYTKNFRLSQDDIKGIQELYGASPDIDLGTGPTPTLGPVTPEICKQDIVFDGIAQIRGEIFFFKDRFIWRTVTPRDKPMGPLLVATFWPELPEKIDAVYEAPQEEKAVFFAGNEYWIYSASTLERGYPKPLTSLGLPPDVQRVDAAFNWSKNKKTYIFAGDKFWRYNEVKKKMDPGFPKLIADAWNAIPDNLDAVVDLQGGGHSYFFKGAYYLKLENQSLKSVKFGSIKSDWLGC

Hamster [7] = assay: Antidyslipidemic activity in cholesterol-fed hamster assessed as reduction in plasma cholesterol; format: functional; details: Cricetinae
Caco-2 = assay: Antidyslipidemic activity in human Caco2 cells assessed as inhibition of cholesterol esterification; format: functional, cell-based
Hamster [8] = assay: Antidyslipidemic activity in hamster assessed as reduction in hepatic cholesteryl esters; format: functional; details: Cricetinae
Rattus norvegicus = species on record: Rattus norvegicus; assay: Antidyslipidemic activity in cholesterol-fed rat assessed as reduction in plasma cholesterol; format: functional
HepG2 = assay: Antidyslipidemic activity in human HepG2 cells assessed as inhibition of cholesterol esterification; format: functional, cell-based
[9] = Antidyslipidemic activity in rat hepatic microsomes assessed as inhibition of […]; format: functional, Liver
Neutrophil elastase = target: T2, Neutrophil elastase (Homo sapiens, UniProt P08246); assay: Inhibition of human leukocyte elastase
T2 sequence (P08246 whole entry): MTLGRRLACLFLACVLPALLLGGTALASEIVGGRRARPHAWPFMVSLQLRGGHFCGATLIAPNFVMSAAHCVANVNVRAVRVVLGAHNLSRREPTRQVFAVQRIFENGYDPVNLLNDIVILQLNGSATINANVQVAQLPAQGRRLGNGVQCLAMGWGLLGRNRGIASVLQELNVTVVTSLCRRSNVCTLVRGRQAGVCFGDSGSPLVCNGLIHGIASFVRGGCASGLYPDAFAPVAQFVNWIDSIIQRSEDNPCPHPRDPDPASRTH

With `O=C(O)[C@@H]1[C@@H](CCC2CCCNC2)C(=O)N1C(=O)N1CCN(C(=O)CCCCCc2ccccc2)CC1` (stereo partly specified) the pIC50 [1] was 8.74.
For `Cc1ccc(C2N(c3ccc(C)cc3)C(=O)C2(Cl)Cl)cc1` (stereo unspecified), the MIC (Pseudomonas aeruginosa) was 125 µg/mL (≈ 390 µM).
For `O=C1N(c2ccccc2)C(c2ccccc2)C1(Cl)Cl` (stereo unspecified), the MIC (Pseudomonas aeruginosa) was 125 µg/mL (≈ 428 µM).
In the case of `O=C1N(c2ccc(Cl)cc2)C(c2ccc(Cl)cc2)C1(Cl)Cl` (stereo unspecified), the MIC (Pseudomonas aeruginosa) was 125 µg/mL (≈ 346 µM).
`CC[C@@H](NC(=O)N1C(=O)CC1SC[C@H](CC(C)C)NC(=O)[C@@H](NC(=O)CC(C)(C)C)C(C)(C)C)c1ccccc1` (stereo partly specified) gave a pIC50 [2] of 7.15.
Compound `COc1ccc(C2N(c3ccc(OC)cc3)C(=O)C2(Cl)Cl)cc1` (stereo unspecified) has an MIC (Pseudomonas aeruginosa) of 125 µg/mL (≈ 355 µM).
For `O=C1[C@H](CC[C@H](O)c2ccc(F)cc2)[C@@H](c2ccc(O)cc2)N1c1ccc(F)cc1` [EZETIMIBE], the ED50 (Hamster [3]) was 0.04 mg/kg/day, the ED50 (Canis familiaris) was 0.007 mg/kg/day and the ED50 (Rhesus monkey) was 0.5 µg/kg.
`CCOc1ccccc1C[C@@H]1C(=O)N(C(=O)NC(c2ccccc2)c2ccccc2)[C@@H]1Oc1ccc(C(=O)O)cc1` gave a half-life [4] of 6 h and a pIC50 (Chymase) of 8.51.
In the case of `COc1ccc(C2C(O)C(=O)N2c2ccccc2)cc1N` (stereo unspecified), the pIC50 [5] was 5.30.
Compound `CCOC(=O)/C=C1\NC(=O)[C@@H]1[C@@H](C)OC(=O)c1cc(OCc2ccccc2)c(O)c(OCc2ccccc2)c1` has a pIC50 [6] of 5.40.
Compound `O=C1N(c2ccccc2)C(c2ccc([N+](=O)[O-])cc2)C1(Cl)Cl` (stereo unspecified) has an MIC (Pseudomonas aeruginosa) of 125 µg/mL (≈ 371 µM).
Work on `COc1ccc([C@@H]2[C@@H](CCCc3ccccc3)C(=O)N2c2ccc(OC)cc2)cc1` [SCH-48461] yielded an ED50 (Hamster [7]) of 1 mg/kg/day, a pIC50 (Caco-2) of 4.49 and an ED50 (Hamster [8]) of 2 mg/kg/day. For the same compound, the ED50 (Rattus norvegicus) was 2 mg/kg/day, the pIC50 (HepG2) was 4.66 and the pIC50 [9] was 4.59. For the same compound, the ED50 (Rhesus monkey) was 0.2 mg/kg/day.
`N=C(N)N1CCC[C@H](C[C@H]2C(=O)N(C(=O)N3CCN(C(=O)CCCCCc4ccccc4)CC3)[C@@H]2C(=O)O)C1` gave a pIC50 [1] of over 8.77.
`C[C@@H](NC(=O)N1C(=O)[C@@H](Cc2ccccc2)[C@H]1Oc1ccc(N2CCN(C)CC2)cc1)c1ccccc1` gave a pIC50 (Chymase) of 9.34.
Compound `CCOC(=O)/C=C1\[C@@H](C(C)O[Si](C)(C)C(C)(C)C)C(=O)N1C(=O)c1cc(OCc2ccccc2)c(OCc2ccccc2)c(OCc2ccccc2)c1` (stereo partly specified) has a pIC50 (Neutrophil elastase) of 6.30.
`CC(C)(C)NC(=O)N1CCN(C(=O)N2C(=O)[C@H](CCCN=C(N)N)[C@H]2C(=O)O)CC1` gave a pIC50 [1] of 8.40.
For `N=C(N)N1CCC[C@@H](C[C@H]2C(=O)N(C(=O)N3CCN(C(=O)CCCCCc4ccccc4)CC3)[C@@H]2C(=O)O)C1`, the pIC50 [1] was over 8.77.

From ChEMBL document CHEMBL1629524, “2-Azetidinone--a new profile of various pharmacological activities” (Eur J Med Chem, 2010)
